Laboratory results as given in patent US11090391B2, “Protein nanocages with enhanced mucus penetration for targeted tissue and intracellular delivery” (The Johns Hopkins University, priority 2016, dated 2021).

Assays:
[1] = system: 3LL cells stably expressing firefly luciferase (3LL-Luc); test: In vitro cytotoxicity, luciferase activity; type: cell-based, mouse; settings: 24 hour treatment
Description: Cytotoxicity was evaluated by optical imaging of luciferase expression. 3LL cells stably expressing firefly luciferase (3LL-Luc) were treated with various concentrations of PEG-FTn-DOX and DOX for 24 hour. After adding a D-luciferin solution, the bioluminescence imaging was acquired by a Xenogen IVIS Spectrum optical imaging system (Caliper Life Sciences). The luciferase activity was quantified to determine IC50 by fitting the data with nonlinear regression using GraphPad Prism.

[2] = system: 3LL-based tumor spheroids; test: Penetration of DOX formulations in tumor spheroids; type: cell-based, mouse; settings: 10 μM DOX concentration
Description: (§1) Multicellular tumor spheroid models consisting of different cancer cell lines were prepared by modifying a previously reported protocol (Friedrich J, et al, Nature Protocols, 4:309-324 (2009)). Briefly, 50 μL DMEM medium containing 1.5% agarose (wt/vol) was plated onto each well of a 96-well microtiter plate under sterile conditions. After the agarose solidifies, the plates were stored at room temperature until use. For the penetration study, 5×10^3 cells were seeded onto the agarose-plated 96-well plates. After 4-5 days culture to obtain multicellular tumor spheroids (400-500 μm in diameter), the tumor spheroids were carefully transferred into glass bottom dishes. […] After the 2-hour incubation, the cells were observed using confocal microscopy with Z-stack imaging at ˜10 μm intervals. […] The 3D images of spheroids were reconstructed by ZEN microscopy software (Carl Zeiss). For analyzing the penetration distance, the radial intensity distribution profile was determined using a custom-made MATLAB code where αtumor is the radius of individual spheroids and r is the radial distance from the spheroid center (r/αtumor=0 and 1 indicate the center and edge of the tumor spheroid, respectively). […] Quantification analysis of signal intensity was performed with ImageJ software (NIH).
Multicellular tumor spheroids were prepared and post-treatment analyzed as described in Example 4.

[3] = system: 3LL-Luc orthotopic proximal lung cancer; test: In vivo anti-cancer efficacy, orthotopic proximal lung cancer model; parameters: species or system mouse; settings: single intratracheal dose 0.25 mg/kg
Description: To evaluate the efficacy of PEG-FTn-DOX for treating lung airway cancer, an aggressive orthotopic mouse model was established of proximal lung cancer in inbred mice with intact host immunity. The model was established via intratracheal intubation of cancer cells into the tracheal and bronchial epithelium of lung airways (DuPage M, et al., Nature protocols, 4:1064-1072 (2009)), which was relevant to small cell lung cancer and squamous-cell lung cancer. Briefly, female C57BL/6 mice (6-8 weeks) were inoculated with 2.5×10^4 3 LL-Luc cells in 50 μL of DMEM medium via intratracheal intubation using a 22 G×1″ Safelet catheter (Exel International). Three days after the inoculation, bioluminescence signal in the lung was observed using a Xenogen IVIS Spectrum optical imaging system. […] The tumor growth was monitored at various time points using an IVIS imaging system and the bioluminescence signal in lung at different time points was quantitatively analyzed by the Living Image® (Caliper Life Sciences) software. The survival of mice was recorded daily, and data was analyzed by Kaplan-Meier survival curve.
The luciferase activity of 3LL-Luc was visualized and quantified by a Xenogen IVIS Spectrum optical imaging system. In brief, mice were anesthetized with 2% isoflurane in O2 and received intraperitoneal injection of D-luciferin solution in PBS at a dose of 150 mg/kg. Serial images were acquired between 5 and 20 minutes after the D-luciferin administration, and the bioluminescence signal intensity was quantified by the Living Image® software.

3LL cells [4] = test: Intracellular trafficking, confocal microscopy; type: cell-based, mouse; settings: 2 hours after addition
A549 = test: Cell uptake of FTn, flow cytometry; type: cell-based, human; settings: TfR 1-mediated
Description: (§2) After washing with cold PBS, cells were analyzed using an AccuriC6 flow cytometer (BD Biosciences). […] The data was fitted to a binding curve via non-linear regression method using GraphPad Prism (GraphPad Software).

[5] = Colloidal stability by agarose gel electrophoresis (PBS, 10% human plasma); type: physicochemical; settings: 0.5% agarose gel, 10% human plasma 1 hour 37° C.
Description: Nanocages reassembled in phosphate buffered saline (PBS) with varying % of PEGylated protein were analyzed by electrophoresis within a 0.5% agarose gel to determine any aggregation.

[6] = PEG surface density, fluorometric determination; type: physicochemical; settings: for PEG2k density: reassembled FTn by % PEGylated protein
Description: The solution was placed on a rotary incubator for 4 hours and then concentrated by centrifugation (Amicon Ultra-0.5 mL 30 K MWCO; Millipore). […] The density was fluorometrically determined (Suk J S, et al., Advanced Drug Delivery Reviews, 99(Pt A):28-51, Epub 2015).
The ratio [Γ/SA] of total unconstrained PEG surface coverage area [Γ] to total particle surface area [SA] determines the surface PEG conformation: low-density mushroom and high-density brush regimes when [Γ/SA]<1 and [Γ/SA]≥1, respectively (Xu Q, et al., ACS Nano, 9. 9217-9227 (2015); Auguste D T, Biomaterials, 27, 2599-2608 (2006)). Briefly, the surface area occupied by one unconstrained PEG chain was calculated by random-walk statistics and given by a sphere of diameter ξ: ξ=0.76 m^1/2[Å], where m is MW of PEG chain, and the surface area occupied by one PEG molecule can be determined by π(ξ/2)^2. Thus, the surface area occupied by unconstrained PEG of MWs 10, 5 and 2 kDa is 45, 23 and 9 nm^2, respectively. The total unconstrained PEG surface area coverage [Γ] was then calculated by multiplying the area occupied at the surface per PEG chain by the total number of PEG chains per protein nanocage.

[7] = Airway distribution after intranasal administration; type: in vivo, mouse; settings: for coverage of mouse tracheal surfaces: intranasal, 10 minutes after administration; for retention in lung airways (overall fluorescence intensity): compared to non-PEGylated FTn
Description: All experiments were approved by the Institutional Animal Care and Use Committee.
Female CF-1 mice (6-8 week) were anesthetized under continuous flow of isoflurane (2% in oxygen). […] Ten minutes after administration, mice were sacrificed and the entire lungs (including trachea) were removed and frozen in Tissue-Tek optimal cutting temperature compound (Sakura Finetek). Tracheas were sectioned on a Leica Cryostat (Leica Biosystems) with a section thickness of 10 μm. The sections were stained with Prolong Gold antifade with DAPI (Life technologies), and fluorescence images of the sections were obtained using a Zeiss confocal microscope. To quantify the particle distribution, the acquired images were analyzed by following an image-based analysis method that was previously reported (Mastorakos P, et al., Proc Nat Acad Sci USA, 112(28):8720-5 (2015)). Briefly, at least 10 fluorescence images at 10× magnification were taken for the lungs harvested from individual animals. The images were quantified with ImageJ software. An average coverage and total particles in airways were determined for each mouse, and then these values were averaged over a group of n=4 mice.

3LL cell spheroids = test: Penetration of Cy5-labeled FTn in multicellular tumor spheroids; type: cell-based, mouse; settings: for distribution in spheroids (3D-reconstructed confocal images): 40 nM, 2-hour incubation; for mean fluorescence signal intensity in spheroids compared to FTn: FIG. 4A
Description: (§3) See detailed procedures as described in Example 4.
as §1

[8] = Hydrodynamic diameter by gel-filtration / size exclusion chromatography; type: physicochemical
Description: Briefly, the protein standards with known HD (Bio-Rad), including M1 (thyroglobulin; 669 kDa, 18.8 nm HD), M2 (γ-globulin; 158 kDa, 11.9 nm HD), M3 (ovalbumin; 44 kDa, 6.13 nm HD), M4 (myoglobin; 17 kDa, 3.83 nm HD) and M5 (vitamin B12; 1.35 kDa, 1.48 nm HD), were analyzed using GFC and subsequently a standard curve of HD vs retention time was established.

[9] = target: transferrin receptor 1 (TfR 1) on mouse Lewis lung carcinoma (3LL) cells (mouse) (UniProt Q62351)
3LL cells [10] = test: Cell uptake / TfR 1-dependent binding of Cy5-labeled FTn formulations, flow cytometry; type: cell-based, mouse
Description: as §3
Subsequently, cells were incubated with Vibrant® DiO cell labeling solution (Life technologies) for 10 minutes following manufacturer's protocol (sub-cellular localization at cell membranes & lipids). After three times washing with PBS, the cells were fixed with Z-fix solution (Anatech) for 15 min, followed by 1.5 μg/mL DAPI staining at room temperature.
as §2

[11] = system: TfR 1-positive lung cancer cells; test: Uptake of FTn/FTn-PEG2k by panel of cell lines; type: cell-based; settings: C2C12, NCI-H69, H69-AR, SW210.5, A549, NCI-H460, NCI-H1975, PC 9
Description: as §2
TfR 1 expression was determined by western blot analysis with anti-TfR 1 antibody (Ab) (BD Pharmingen) in various cell lines in vitro, including mouse Lewis lung carcinoma (3LL) cells, mouse myoblast (C2C12, a TfR 1-negative cell line as the negative control), human small cell lung cancer cells (NCI-H69, H69-AR, and SW210.5), and human non-small cell lung cancer cells (A549, NCI-H460, NCI-H1975, and PC 9). The expression was also determined when 3LL, A549, PC9, and SW210.5 cells were incubated in 20% oxygen and 1% oxygen (i.e. hypoxic condition).

[12] = Physicochemical properties (hydrodynamic diameter, ζ-potential, drug loading)
Description: The DOX conjugated PEG-FTn is denoted as FTn/FTn-PEG2k/DOX. […] The mixture was incubated for 1 hour and 1.5 mg EDC was added to activate a carboxyl group of each DOX-linker conjugate. The resultant compounds were analyzed using high-performance liquid chromatography (HPLC, Varian Inc.) equipped with a C18 reverse phase column. […] The final product was extensively dialyzed (10 kDa MWCO; Thermo Scientific) and purified with a PD-10 column.

[13] = system: orthotopic 3LL lung cancer; settings: mouse, in vivo
Description: The mice were sacrificed 2 hour post-administration, and the entire lungs were isolated and frozen slices were prepared.

Question: With `COc1cccc2c1C(=O)c1c(O)c3c(c(O)c1C2=O)C[C@@](O)(C(=O)CO)C[C@@H]3O[C@H]1C[C@H](N)[C@H](O)[C@H](C)O1` [DOX, doxorubicin, reference compound] as the compound, how does the IC50 [1] read?
Answer: The IC50 was 480 nM.

Question: What about the “distribution in spheroids (3D confocal images)” value [2] of the same compound?
Answer: The value was “remained primarily at the periphery of the spheroids”.

Question: What about the median survival [3] of the same compound?
Answer: Its median survival is 18 days.

Question: What about the “intracellular localization of DOX” value (3LL cells [4]) of the same compound?
Answer: The value was “primarily localized in the cell nuclei”.

Question: Which results are given for “FTn: ferritin heavy-chain nanocages self-assembled from recombinant human ferritin heavy chain, without PEG”?
Answer: uptake by A549 (A549): taken up; aggregation during electrophoresis (colloidal stability) [5]: aggregated and were stuck in the wells; PEG2k density [6]: 0 #/nm^2; coverage of mouse tracheal surfaces [7]: 50±9%; distribution in airways ([7]; mucus-covered large airways (trachea)): sparsely distributed in airways; distribution in spheroids (3D-reconstructed confocal images) (3LL cell spheroids): uniformly distributed throughout the entire spheroids including the core; mean fluorescence signal intensity in spheroids in presence of anti-TfR 1 Ab (3LL cell spheroids; 10-fold molar excess, 1 hour): significantly decreased; diameter from size exclusion chromatography ([8]; pH 2.0, broad peak): 1.8-5.4 nm; diameter from size exclusion chromatography ([8]; pH 7.4, single peak): 13.2 nm

Question: For “FTn/FTn-PEG5k: hybrid FTn with 1:1 molar ratio of FTn and FTn conjugated with 5 kDa PEG”, which “retention in lung airways (overall fluorescence intensity)” value [7] is on record?
Answer: The value was “retained at higher levels”.

Question: And the “coverage of mouse tracheal surfaces” value [7]?
Answer: Its value is 80±8%.

Question: What about the “distribution in spheroids (3D-reconstructed confocal images)” value (3LL cell spheroids) of the same compound?
Answer: The value was “primarily near the periphery of tumor spheroids”.

Question: What about the “mean fluorescence signal intensity in spheroids compared to FTn” value (3LL cell spheroids) of the same compound?
Answer: The value was “significantly lower intensity”.

Question: With “hybrid nanocage FTn/FTn-PEG2k (50% ferritin and 50% ferritin PEGylated with 2 kDa PEG) (ligand)” as the compound, how does the relative uptake (%) by 3LL cells, non-PEGylated FTn = 100% (% of the uptake of non-PEGylated FTn) [9] read?
Answer: The relative uptake (%) by 3LL cells, non-PEGylated FTn = 100% (% of the uptake of non-PEGylated FTn) was over 80.

Question: Which “tumor cell uptake compared to non-PEGylated FTn” value (3LL cells [10]; 3LL cells, 2 kDa PEG, non-PEGylated FTn = 100%) does the source give for “FTn/FTn-PEG2k: hybrid nanocage formed with 50% ferritin and 50% PEGylated ferritin using PEG2k” here?
Answer: Its value is “more than 80%”.

Question: What about the PEG surface density ([6]; hybrid nanocage, fluorometric measurement) of the same compound?
Answer: The PEG surface density was about 0.24±0.03 PEG/nm^2.

Question: What about the PEG2k density [6] of the same compound?
Answer: Its PEG2k density is 0.21 #/nm^2.

Question: What about the “uptake by TfR 1-positive cells” value [11] of the same compound?
Answer: Its value is “efficiently taken up”.

Question: And the “retention in lung airways (overall fluorescence intensity)” value [7]?
Answer: Its value is “retained at higher levels”.

Question: And the “coverage of mouse tracheal surfaces” value [7]?
Answer: The value was 77±8%.

Question: And the “distribution in spheroids (3D-reconstructed confocal images)” value (3LL cell spheroids)?
Answer: Its value is “uniformly distributed throughout the entire spheroids including the core”.

Question: And the “mean fluorescence signal intensity in spheroids in presence of anti-TfR 1 Ab” value (3LL cell spheroids; 10-fold molar excess, 1 hour)?
Answer: The value was “significantly decreased”.

Question: What about the “mean fluorescence signal intensity in spheroids compared to FTn” value (3LL cell spheroids) of the same compound?
Answer: The value was “indistinguishable”.

Question: What about the Hydrodynamic diameter [12] of the same compound?
Answer: The Hydrodynamic diameter was 13.6 ± 1.3 nm.

Question: And the ζ-potential [12]?
Answer: The ζ-potential was −4.1 ± 1.1 mV.

Question: What about the “localization in orthotopic lung cancer” value [13] of the same compound?
Answer: The value was “found preferentially within the tumor tissue”.

Question: And the colocalization with lysosomes (3LL cells [4])?
Answer: The colocalization with lysosomes was “colocalized with lysosomes”.

Question: For “FTn/FTn-PEG10k: hybrid FTn with 1:1 molar ratio of FTn and FTn conjugated with 10 kDa PEG”, which “uptake compared to the uptake of FTn” value (3LL cells [10]; FIG. 3C) is on record?
Answer: The value was “significantly reduced”.

Question: And the “coverage of mouse tracheal surfaces” value [7]?
Answer: Its value is 74±8%.

Question: What about the “distribution in spheroids (3D-reconstructed confocal images)” value (3LL cell spheroids) of the same compound?
Answer: The value was “primarily near the periphery of tumor spheroids”.

Question: And the “mean fluorescence signal intensity in spheroids compared to FTn” value (3LL cell spheroids)?
Answer: The value was “significantly lower intensity”.

Question: For “FTn-Cy5: FTn labeled with fluorescent dye Cy5, ~23 dye molecules per FTn”, which “uptake in the presence of anti-TfR 1 antibody” value (3LL cells [10]; 10-fold molar excess anti-TfR 1 Ab) is on record?
Answer: The value was “significantly reduced uptake”.

Question: What about the “penetration in presence of excess unlabeled FTn” value (3LL cell spheroids; 10-fold molar excess, 1 hour) of the same compound?
Answer: The value was “reduced significantly”.
